Assay results as given in patent publication US20220323389A1, “TREATING NON-ALCOHOLIC FATTY LIVER DISEASE AND INFLAMMATORY STEATOHEPATITIS WITH SLC25A1 INHIBITORS” (GEORGETOWN UNIVERSITY, priority 2019, published 2022).

How the values were obtained:
[1] = system: mice fed with a normal diet; assay: Body weight of mice fed control (normal) diet and treated with CTPI-2; assay type: in vivo; details: CTPI-2 for 5 months
Source text: Cells, reagents, antibodies, primers. CTPI-2 was purchased from Enamine Ltd. (Monmouth Jct, N.J.). The anti-SLC25A1 antibody used in immunoblots was either from Santa Cruz Biotech (Dallas, Tex.), (#sc-86392), employed at 1:1000 dilution, or from Proteintech (15235-1-AP, Rosemont, Ill.), employed at 1:1000 dilution. Mice and diets. For the majority of the experiments (except for experiments harboring genetic alterations of the Slc25a1 gene), DIO C57BL/6J mice were purchased from Jackson Laboratory (Bar Harbor, Me.) between 4-6 weeks of age. Mice were acclimated in the Georgetown University animal facility for at least one week. […] During the course of the experiments, mice were housed at one mouse per cage and food consumption was measured regularly. […] Protein quantification was done by using a Coomassie (Bradford) Protein Assay Kit (Pierce, Waltham Mass.). […] The steatosis grade was scored according to the degree of liver involvement with 0, <5%; 1, 5% to 33%; 2, 33% to 50%; and 3, >50%. Alternatively, the percentage of steatosis per area was calculated with ImageJ program. […] Targeted quantitation of triglycerides was performed using multiple reaction monitoring mass spectrometry. […] Signal intensities from all MRM Q1/Q3 ion pairs for triglycerides were ranked to ensure selection of the most intense precursor and fragment ion pair for MRM-based quantitation. […]

[2] = system: C57Bl/6J mice fed with the HFD; assay: Diet-Induced-Obesity (DIO) model: body weight, fat and organ weights of HFD-fed mice; assay type: in vivo
Source text: (§1) Cells, reagents, antibodies, primers. CTPI-2 was purchased from Enamine Ltd. (Monmouth Jct, N.J.). The anti-SLC25A1 antibody used in immunoblots was either from Santa Cruz Biotech (Dallas, Tex.), (#sc-86392), employed at 1:1000 dilution, or from Proteintech (15235-1-AP, Rosemont, Ill.), employed at 1:1000 dilution. Mice and diets. For the majority of the experiments (except for experiments harboring genetic alterations of the Slc25a1 gene), DIO C57BL/6J mice were purchased from Jackson Laboratory (Bar Harbor, Me.) between 4-6 weeks of age. Mice were acclimated in the Georgetown University animal facility for at least one week. At the indicated times, mice were randomized to a standard laboratory chow diet (Labdiet #5053, St. Louis, Mo.) or the high fat diet (Researchdiets D12492, New Brunswick, N.J.), with 60% calories derived from fat (lard), and 20% from sucrose. During the course of the experiments, mice were housed at one mouse per cage and food consumption was measured regularly. Animals were maintained in a normal light-cycle and provided with water ad libitum. CTPI-2 treatment. CTPI-2 was administered at 50 mg/kg via intra-peritoneal injection on alternate days. CTPI-2 was diluted either in DMSO (at 0.2% final concentration) using DMSO as vehicle control, or in 0.47% Sodium Bicarbonate (NaCO3) at a final concentration of 14 mM. NaCO3 (0.47%) served as vehicle control. Immunoblot of murine tissues. Frozen tissue samples were homogenized in radioimmunoprecipitation (RIPA) buffer with protease inhibitor cocktails. Protein quantification was done by using a Coomassie (Bradford) Protein Assay Kit (Pierce, Waltham Mass.). Equal amount of protein lysate was loaded and separated by Novex™ 4-20% Tris-Glycine Mini Gel (Invitrogen, Carlsbad, Calif.), then transferred to a PVDF membrane. Appropriate horseradish peroxidase-conjugated secondary antibody (Invitrogen) was applied after incubation with primary antibody. SuperSignal™ West Pico PLUS Chemiluminescent Substrate (Thermo Fisher Scientific, Waltham, Mass.) was used for protein detection. SLC25a1 strains. The original Slc25a1 tm1a strain was purchased from the Mutant Mouse Resource and Research Center (MMRRC, Chapel Hill, N.C.) (C57BL/6N-Slc25a1^tm1a(EUCOMM)Wtsi, RRID: MMRRC_042258-UCD). The Tg(Alb-cre)21M (Alb-Cre) mice were purchased from Jackson Laboratory (#003574). Slc25a1^+/−, Slc25a1^fl/fl and Alb/Cre mice were genotyped by conventional PCR with genomic DNA extracted from the mouse tail biopsies. Agarose gel electrophoresis was used for analysis of PCR product analysis. The PCR conditions used were as follows: 95° C. for 4 minutes, followed by 40 cycles (95° C. for 30 seconds, 65° C. for 30 seconds, and 72° C. for 50 seconds), 72° C. for 2 min then kept in 4° C. before used. Histological Analysis. Assessment of steatosis was performed on paraffin embedded H&E stained sections derived from 3-6 animals and on multiple images for each animal. The steatosis grade was scored according to the degree of liver involvement with 0, <5%; 1, 5% to 33%; 2, 33% to 50%; and 3, >50%. Alternatively, the percentage of steatosis per area was calculated with ImageJ program. Lypidomic analysis. Targeted quantitation of triglycerides was performed using multiple reaction monitoring mass spectrometry. The samples were resolved on an CORTECS T3 2.7 μm, 2.1×30 mm column online with a triple quadrupole mass spectrometer (Xevo-TQ-S, Waters Corporation, Milford, Mass.) operating in the multiple reaction monitoring (MRM) mode. Signal intensities from all MRM Q1/Q3 ion pairs for triglycerides were ranked to ensure selection of the most intense precursor and fragment ion pair for MRM-based quantitation. […] The LC and MRM method used here for the study was developed by Waters Corporation. The metabolite ratios were calculated by normalizing the peak area of endogenous metabolites within tissue samples normalized to the internal standard. Processed data was normalized with respect to tissue weight taken for analysis. […]

HFD-fed mice = assay: Inflammation and fibrosis in HFD-fed mice (serum interleukins, macrophage IHC, RT-PCR, Picro-Sirius Red); assay type: in vivo, mouse
Source text: as §1

SLC25A1 = SLC25A1 (Homo sapiens, UniProt P53007); details: previous studies performed in vitro (Fernandez et al.); cited from earlier work
[3] = system: liver gene expression program induced by the HFD; assay: RNAseq, RT-qPCR and immunoblot of liver (and WAT) of HFD-fed mice; assay type: in vivo, mouse
Source text: as §1

[4] = HFD-fed mice, CTPI-2 50 mg/kg i.p. alternate days
[5] = HFD-fed mice, CTPI-2 vs vehicle
[6] = liver, 4 weeks of CTPI-2 treatment
[7] = liver, normalized to HFD-vehicle

Sequence of SLC25A1 (P53007 14-311, species assumed): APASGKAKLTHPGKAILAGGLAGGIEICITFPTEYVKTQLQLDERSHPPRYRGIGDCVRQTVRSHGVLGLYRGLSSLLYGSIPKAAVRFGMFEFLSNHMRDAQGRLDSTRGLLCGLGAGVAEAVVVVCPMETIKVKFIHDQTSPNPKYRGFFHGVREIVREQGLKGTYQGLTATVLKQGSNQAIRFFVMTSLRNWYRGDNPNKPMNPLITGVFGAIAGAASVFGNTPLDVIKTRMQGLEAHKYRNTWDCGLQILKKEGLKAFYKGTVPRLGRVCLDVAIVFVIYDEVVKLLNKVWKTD

O=C(O)c1ccccc1NS(=O)(=O)c1ccc(Cl)c([N+](=O)[O-])c1 [CTPI-2]
body weights [1]: did not modify body weights | feeding behavior (daily food consumption) ([2]; C57BL/6J mice, CTPI-2 50 mg/kg i.p. on alternate days): did not modify feeding behavior | body weight gain ([2]; HFD 6 months, CTPI-2 50 mg/kg i.p. alternate days, started after 12 weeks of HFD): largely prevented such weight gain | WAT (visceral abdominal fat), also by MRI [2, 4]: reducing the WAT | WAT weight (mass) [2, 4]: reducing their mass | liver weight (mass) [2, 4]: reducing their mass | pale, enlarged liver phenotype (visual examination) [2, 4]: completely reverted this phenotype | collagen in the liver (Picro-Sirius Red) (HFD-fed mice; HFD-fed mice): reduction of collagen in the liver | circulating serum IL-4 (HFD-fed mice; [5]): increasing | circulating serum IL-6 (HFD-fed mice; [5]): lowered | circulating serum IL-10 (HFD-fed mice; [5]): increasing | monocyte chemo-attractant protein-1 (MCP1) (HFD-fed mice; HFD-fed mice, serum): reduced | monokine induced by interferon-γ (MIG) (HFD-fed mice; HFD-fed mice, serum): reduced | adipose tissue macrophage infiltration organized in crown-like structures (HFD-fed mice; HFD-fed mice, IHC): completely resolved this phenotype | liver Kupffer cell macrophage population (F4/80) and perivascular macrophage infiltration (HFD-fed mice; HFD-fed mice, IHC): reversed | M2 markers (MRC1, FN-1, Arg1) mRNA (HFD-fed mice; liver of HFD-fed mice, RT-PCR): either not affecting or increasing | expression of anti-fibrotic cadherin 1 (HFD-fed mice; liver of HFD-fed mice, RT-PCR): increase | expression of pro-fibrotic genes (collagen 1 and 4, keratin 19, PDGFR) (HFD-fed mice; liver of HFD-fed mice, RT-PCR): reduction | pro-inflammatory markers of the M1 phenotype (mRNA) (HFD-fed mice; liver of HFD-fed mice, RT-PCR): repressed | SLC25A1 expression levels in vitro (SLC25A1): did not affect the expression levels of this protein | mitochondrial citrate transport activity (SLC25A1): interfered with the mitochondrial citrate transport activity | bile acid biosynthetic pathway (RNAseq) ([3]; liver): inhibits bile acid biosynthetic pathway | protein levels matching the gene expression pattern (immunoblot) ([3]; liver and adipose tissue): concordantly paralleled by changes in the protein levels | cluster of genes involved in NAFLD (RNAseq) [3, 6]: down-regulated | gene expression program induced by the HFD (RNAseq) [3, 6]: essentially reverted the gene expression program induced by the HFD | levels of PPARγ ([3]; liver, RT-qPCR): unchanged | PPARγ and downstream target genes CEBPα1, CEBPα2 and GLUT4 (RT-qPCR) [3, 7]: down-regulated | master lipogenetic genes SREBP1, FASN and ACACA (RT-qPCR) [3, 7]: suppression | genes/pathways of carbon and pyruvate metabolism, glycolysis and gluconeogenic genes (RNAseq) ([3]; liver, Fbp1, PC, PCK1/2, G6PC, G6PC3, AldoA/B, PFKL/P, PGK1, PKLR): repressed
